According to patent US8063225B2, “Tricyclic compound derivatives useful in the treatment of neoplastic diseases, inflammatory disorders and immunomodulatory disorders” (Chembridge Corporation, priority 2006, dated 2011):

Legend:
[1] = system: HEK293 (human normal embryonic kidney); experiment: Cell proliferation inhibition, Cell Titer-Glo, HEK293; type: cell-based; conditions: cell proliferation assay, HEK293 cells, read-out: HEK 293 IC50
Procedure, shortened: (§1)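 Cells seeded at 2500-5000 per well with serially diluted compound for typically 3 days. Viable cells measured by ATP luminescence (Cell Titer-Glo); IC50 from proliferation-inhibition curves.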

TrkA = target: T1, TrkA (Homo sapiens, UniProt P04629); experiment: Tyrosine kinase assay (Kinase-Glo or AlphaScreen), TrkA; conditions: biochemical tyrosine kinase assay
T1 construct: 6×His- or GST-tagged kinase domain fragments of the corresponding RTKs expressed in baculovirus system; host or cells: baculovirus system
T1 sequence (P04629 510-781 limits assumed, species assumed): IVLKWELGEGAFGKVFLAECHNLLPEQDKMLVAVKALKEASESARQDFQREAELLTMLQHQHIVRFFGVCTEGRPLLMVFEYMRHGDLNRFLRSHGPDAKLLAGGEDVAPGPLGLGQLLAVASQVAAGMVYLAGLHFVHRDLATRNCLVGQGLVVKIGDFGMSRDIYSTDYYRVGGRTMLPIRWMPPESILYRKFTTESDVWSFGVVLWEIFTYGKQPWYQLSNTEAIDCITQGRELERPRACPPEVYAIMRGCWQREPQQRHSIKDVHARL
Description: To determine inhibition of several tyrosine kinases, such as IGF1R, InsR, Alk, TrkA and Jak2, kinase assays are conducted using either Kinase-Glo (Promega) or AlphaScreen (PerkinElmer) kinase assay platforms. The Kinase-Glo Luminescent Kinase Assay is a homogeneous method for measuring kinase activity by determining the amount of ATP remaining after a kinase reaction. The luminescent signal is proportional to the amount of ATP and inversely proportional to the amount of kinase activity. Tyrosine kinase PT66 AlphaScreen Assay is a high-sensitivity homogeneous, anti-phosphotyrosine antibody-mediated luminescent proximity method measuring, incorporation of phosphate in synthetic poly(Glu-Tyr) substrate. The kinase preparations used consist of purified recombinant, 6×His- or GST-tagged kinase domain fragments of the corresponding RTKs expressed in baculovirus system.
The IGF1R tyrosine kinase is assayed in Kinase-Glo ATP depletion assay using the synthetic polymer poly(Glu-Tyr, 4:1) (Sigma Chemicals) as a phosphoacceptor substrate. Each reaction mixture consists of a total volume of 10 μl and contains 40 ng of the enzyme, 5 μg of poly(Glu-Tyr), 10 μM of ATP and variable concentrations of test compounds. The mixtures also contain 50 mM Tris-HCl, pH 7.5; 5 mM MgCl2; 5 mM MnCl2; 2 mM DTT and 0.01% Tween 20. The reaction mixtures are incubated at 37° C. for 60 minutes and residual concentration of ATP in the mixture is determined by adding luciferase-containing Kinase-Glo (Promega) development reagent and counting luminescence levels using Fusion Universal Microplate Analyzer (PerkinElmer). Tested compounds are dissolved in dimethyl sulfoxide to a stock concentration of 10 mM and are typically evaluated in the assay at eight concentrations in 1 nM to 20 μM range, each in quadruplicate. […] IC50 values are derived by non-linear regression analysis using Prism 3.0 software (Graphpad Software). Other tyrosine kinases are assayed according to the same protocol after titrating amount of the enzyme to provide optimal signal-to-noise ratio and no more than 30% of total ATP consumption in the reaction conditions used.
The IGF1R tyrosine kinase is assayed in Phosphotyrosine (PT66 or PT 100) AlphaScreen chemiluminescent assay (PerkinElmer) according to the manufacturerer's recommendations. Each kinase reaction mixture consists of a total volume of 15 μl and contains 0.1-1 ng of the enzyme, 7 ng of biotinylated poly(Glu-Tyr) (Cis-Bio), 10 μM of ATP and variable concentrations of test compounds. The mixtures also contain 50 mM Tris-HCl, pH 7.5; 5 mM MgCl2; 5 mM MnCl2; 2 mM DTT and 0.01% Tween 20. The reaction mixtures are incubated at room temperature for 30 minutes. Ten (10) μl of the mixture of […] and donor beads (as supplied by the manufacturer) is then added to the reaction and the incubation is continued for an additional 60 minutes.

K562 = experiment: Cell proliferation inhibition, Cell Titer-Glo, K562; type: cell-based; conditions: Homo sapiens; cell proliferation assay, K562 cells
Procedure, shortened: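 K562 cells were seeded at 2500-5000 cells per well in white, clear-bottomed 384-well culture plates and treated with dilutions of test compounds for typically 3 days. Viable cells were quantified with the Cell Titer-Glo Luminescent Cell Viability Assay (Promega), which measures total ATP, read on a luminescence plate reader to derive IC50 values for proliferation inhibition.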

[2] = system: CHO (chinese hamster ovary); experiment: Cell proliferation inhibition, Cell Titer-Glo, CHO; type: cell-based; conditions: Cricetulus griseus; cell proliferation assay, CHO cells
Procedure, shortened: as §1

IC50 (TrkA) [µM] | IC50 (K562) [µM] | Structure (SMILES) | IC50 [1] [µM] | IC50 [2] [µM]
< 0.5 | 0.5 to 5 | Cc1ccc(OCC(O)CNc2cc[nH]c(=O)c2-c2nc3cc4c(cc3[nH]2)C(=O)N(C2CCN(C)CC2)C4=O)c(C)c1 (stereo not shown) [compound 15] | 5 to 15 | 
< 0.5 | 5 to 15 | Cc1ccc2c(ccn2C[C@H](O)CNc2cc[nH]c(=O)c2-c2nc3cc4c(cc3[nH]2)C(=O)N(C2CCN(C)CC2)C4=O)c1 [compound 131] | 0.5 to 5 | 5 to 15
